Some test systems named below: A498; A549; BT-549; EKVX; HCC 2998; HCT-116; IGROV-1; KM12; MDA-MB-231; MDA-MB-435; MDA-N; NCI-H460; OVCAR-8; SF-268; SK-MEL-2; SK-MEL-5; SNB-78; SW-620; U-251; UACC-257.
Experiment in all cases: NCI anticancer screen, dose series, 48 h

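A five-concentration, 48-hour dose response in 96-well plates underlies each endpoint, interpolated linearly between surrounding concentrations. The concentration for 50% growth inhibition is given as GI50.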 The source made the active and inactive calls. Cut-off read from the data, not from the text of the source: active = GI50 up to about 1.1 µM and inactive = higher.

With `COc1ccc(CC2NCCc3cc(OC)c(OC)cc32)cc1Br` (centres undefined), the GI50 is 30.1 µM (inactive) with A498; 56 µM (inactive) with A549; 87.5 µM (inactive) in the experiment with BT-549; 35.2 µM (inactive) in the experiment with EKVX; 18 µM (inactive) in the experiment with HCC 2998; 14.9 µM (inactive) with HCT-116. Moreover, the GI50 in the experiment with IGROV-1 is 35 µM (inactive); in the experiment on KM12, 21.6 µM (inactive); in the experiment on MDA-MB-231 it was 22 µM (inactive); in the experiment with MDA-MB-435 it was 25.1 µM (inactive); in the experiment on MDA-N it was 18.2 µM (inactive); with NCI-H460, 21.2 µM (inactive). The GI50 in the experiment with OVCAR-8 is 50.2 µM (inactive); with SF-268, 63.5 µM (inactive); in the experiment with SK-MEL-2 it was 27.2 µM (inactive); in the experiment with SK-MEL-5 it was 13 µM (inactive); in the experiment with SNB-78, 42.4 µM (inactive); with SW-620, 30.9 µM (inactive). Moreover, the GI50 in the experiment on U-251 was 34.4 µM (inactive); in the experiment on UACC-257, 17.3 µM (inactive).

For `Nc1nc(F)nc2c1ncn2C1OC(COP(=O)(O)O)C(O)C1O` (centres undefined), the GI50 in the experiment on A498 was 146 µM (inactive); with A549 it was 40.7 µM (inactive); in the experiment with BT-549, 56.2 µM (inactive); with EKVX, 45.9 µM (inactive); in the experiment with HCC 2998, 177 µM (inactive); in the experiment with HCT-116 it was 33.1 µM (inactive). In addition, the GI50 was 286 µM (inactive) in the experiment with IGROV-1; 266 µM (inactive) in the experiment on KM12; 80.2 µM (inactive) with MDA-MB-231; 11.9 µM (inactive) in the experiment with MDA-MB-435; 34 µM (inactive) in the experiment with MDA-N; 94 µM (inactive) with NCI-H460. For the same compound, the GI50 in the experiment on OVCAR-8 was 2.91 µM (inactive); in the experiment with SF-268, 76 µM (inactive); in the experiment with SK-MEL-2, 31.4 µM (inactive); with SK-MEL-5 it was 56.4 µM (inactive); with SNB-78 it was 186 µM (inactive); in the experiment on SW-620, 64.9 µM (inactive). The values for the GI50 in the experiment on U-251 and in the experiment with UACC-257 were 231 µM (inactive) and 146 µM (inactive), respectively.

Take `COc1cc2c(c(OC)c1OC)-c1ccc(SC)c(=O)cc1C(CO)C2` (centres undefined): the GI50 in the experiment on A498 is 0.107 µM (active); in the experiment with A549 it was 0.22 µM (active); in the experiment on EKVX, 0.603 µM (active); in the experiment with HCC 2998, 0.185 µM (active); in the experiment on HCT-116, 0.12 µM (active); in the experiment on IGROV-1, 0.169 µM (active). Besides, the GI50 with KM12 was 0.0813 µM (active); with NCI-H460, 0.184 µM (active); with OVCAR-8, 0.188 µM (active); with SF-268, 0.146 µM (active); in the experiment on SK-MEL-2 it was 0.209 µM (active); in the experiment on SK-MEL-5, 0.172 µM (active). Further, the GI50 with SNB-78 is 0.0966 µM (active); with SW-620, 0.167 µM (active); in the experiment with U-251 it was 0.246 µM (active); with UACC-257, 0.0578 µM (active).

On to `COc1ccc(N2C(=O)c3c(c4[nH]c5ccccc5c4c4ccc(C(C)(C)C)cc34)C2=O)cc1`, for which the GI50 with A498 is 40.5 µM (inactive); in the experiment on A549, 47.1 µM (inactive); in the experiment on EKVX, 64 µM (inactive); with HCC 2998, > 100 µM (inactive); in the experiment with HCT-116, 69.7 µM (inactive); in the experiment on IGROV-1, > 100 µM (inactive). The GI50 with KM12 is 64.9 µM (inactive); in the experiment with NCI-H460, 40.4 µM (inactive); in the experiment with OVCAR-8 it was 22.5 µM (inactive); with SF-268, 29.2 µM (inactive); in the experiment on SK-MEL-2, 26.2 µM (inactive); in the experiment on SK-MEL-5 it was > 100 µM (inactive). For the same compound, the GI50 in the experiment with SNB-78 was 25.7 µM (inactive); with SW-620, 61.8 µM (inactive); in the experiment with U-251 it was 22.8 µM (inactive); in the experiment on UACC-257 it was > 100 µM (inactive).

As for `CC(=O)c1cccc(NC(=O)C(=O)NNc2nnc(S)n2N)c1`, the GI50 is 20.4 µM (inactive) with A498; 3.75 µM (inactive) in the experiment on A549; 2.34 µM (inactive) in the experiment on BT-549; 14.2 µM (inactive) in the experiment with EKVX; 14.1 µM (inactive) in the experiment on HCC 2998; 4 µM (inactive) in the experiment with HCT-116. The GI50 with IGROV-1 is 8.61 µM (inactive); in the experiment on KM12, 11.1 µM (inactive); with MDA-N, 2.27 µM (inactive); with NCI-H460, 4.17 µM (inactive); in the experiment on OVCAR-8, 5.46 µM (inactive); in the experiment on SF-268, 9.62 µM (inactive). Moreover, the GI50 in the experiment on SK-MEL-2 is 3.06 µM (inactive); in the experiment on SK-MEL-5, 1.21 µM (inactive); with SNB-78, 11.3 µM (inactive); in the experiment with SW-620 it was 7.73 µM (inactive); in the experiment with U-251 it was 3.57 µM (inactive); in the experiment with UACC-257 it was 2.75 µM (inactive).

Take `Cc1cccc(C)c1NC(=O)C(=O)Cc1nc2ccccc2s1`: the GI50 in the experiment with A498, in the experiment on A549, in the experiment on EKVX, with HCC 2998, in the experiment with HCT-116 and in the experiment on IGROV-1 was > 100 µM (inactive) in each case. Besides, the GI50 in the experiment on KM12, in the experiment with NCI-H460, with OVCAR-8, with SF-268, in the experiment with SK-MEL-2 and in the experiment with SK-MEL-5 was > 100 µM (inactive) in each case. Also, the GI50 in the experiment on SNB-78, in the experiment with SW-620, with U-251 and with UACC-257 was > 100 µM (inactive) throughout.

On to `C[C@]12CCC(=O)C=C1CC[C@@H]1C2CC[C@@]2(C)C1CC[C@@H]2OC(=O)C12OC1CCC2=O` (some centres undefined), for which the GI50 was 18 µM (inactive) with A498; 25 µM (inactive) in the experiment on A549; 15.5 µM (inactive) with EKVX; 20.3 µM (inactive) in the experiment with HCC 2998; 15.7 µM (inactive) with HCT-116; 10.8 µM (inactive) in the experiment with IGROV-1. In addition, the GI50 in the experiment on KM12 was 18.7 µM (inactive); in the experiment with NCI-H460 it was 17.9 µM (inactive); in the experiment with OVCAR-8, 17.9 µM (inactive); in the experiment on SF-268 it was 20 µM (inactive); in the experiment on SK-MEL-2 it was 15.2 µM (inactive); in the experiment with SK-MEL-5, 16.2 µM (inactive). Also, the GI50 in the experiment with SNB-78 was 16.8 µM (inactive); with SW-620 it was 16.9 µM (inactive); in the experiment with U-251, 15.1 µM (inactive); with UACC-257, 18 µM (inactive).

Consider `CC(c1ccccc1)N1CC(C)(c2ccccc2)N(O)C(c2ccccc2)C1C` (centres undefined), for which the GI50 in the experiment on A498 is 18 µM (inactive); in the experiment with A549, 7.01 µM (inactive); in the experiment on EKVX, 13.5 µM (inactive); with HCC 2998, 11.2 µM (inactive); in the experiment with HCT-116, 3.38 µM (inactive); in the experiment on IGROV-1, 7.45 µM (inactive). For the same compound, the GI50 is 8 µM (inactive) in the experiment with KM12; 7.29 µM (inactive) in the experiment on NCI-H460; 9.91 µM (inactive) with OVCAR-8; 4.15 µM (inactive) with SF-268; 5.42 µM (inactive) with SK-MEL-2; 7.82 µM (inactive) in the experiment on SK-MEL-5. Besides, the GI50 with SNB-78 was 15.1 µM (inactive); with SW-620, 12.1 µM (inactive); with U-251 it was 13.1 µM (inactive); in the experiment with UACC-257, 13.5 µM (inactive).

With `O=S1(=O)c2ccccc2N=C(c2ccccc2Cl)CC1c1ccc(F)cc1` (centres undefined), the GI50 was 17.5 µM (inactive) in the experiment with A498; 20 µM (inactive) in the experiment on A549; 18.1 µM (inactive) in the experiment with EKVX; 14.2 µM (inactive) with HCC 2998; 10.8 µM (inactive) in the experiment on HCT-116; 17.4 µM (inactive) in the experiment on IGROV-1. Moreover, the GI50 in the experiment with KM12 is 16.5 µM (inactive); with NCI-H460, 18.5 µM (inactive); with OVCAR-8, 21.5 µM (inactive); in the experiment with SF-268, 22.1 µM (inactive); in the experiment on SK-MEL-2 it was 17.8 µM (inactive); with SK-MEL-5, 16.5 µM (inactive). Also, the GI50 is 19.1 µM (inactive) with SNB-78, 13.4 µM (inactive) with SW-620, 15.1 µM (inactive) in the experiment with U-251 and 11.9 µM (inactive) in the experiment with UACC-257.

Values taken from ChEMBL document CHEMBL1201862, “PubChem BioAssay data set” (2004).
